16 compounds from patent publication US20150210641A1, “NOVEL CYTOCHROME P450 INHIBITORS AND THEIR METHOD OF USE” (CORTENDO AB (PUBL), priority 2014, published 2015) can be followed below.

What all share (format): cell-based
One assay has as its target T1, recombinant CYP-17 (Homo sapiens, UniProt P05093).
T1 construct: expressed in transfected cells
T1 sequence (P05093 1-508): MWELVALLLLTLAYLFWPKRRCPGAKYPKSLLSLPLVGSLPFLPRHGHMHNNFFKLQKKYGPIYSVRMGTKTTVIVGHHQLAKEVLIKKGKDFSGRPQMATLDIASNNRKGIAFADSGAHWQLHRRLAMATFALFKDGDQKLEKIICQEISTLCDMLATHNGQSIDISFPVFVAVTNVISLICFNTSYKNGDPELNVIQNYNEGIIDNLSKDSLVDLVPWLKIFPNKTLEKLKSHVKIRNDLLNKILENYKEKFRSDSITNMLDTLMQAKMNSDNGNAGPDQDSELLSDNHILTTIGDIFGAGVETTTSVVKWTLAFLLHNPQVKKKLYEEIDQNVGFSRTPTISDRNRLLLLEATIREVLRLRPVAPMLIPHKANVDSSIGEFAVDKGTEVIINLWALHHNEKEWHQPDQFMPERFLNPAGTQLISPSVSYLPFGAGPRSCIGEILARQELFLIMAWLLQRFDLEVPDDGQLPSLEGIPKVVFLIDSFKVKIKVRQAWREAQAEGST
The assay can be described thus: Cyp17 assay: 3H-acetic acid release from [21-3H] 17α-hydroxyl-Pregnenolone in AD293 cells. Particulars: AD293 cells stably over-expressing recombinant CYP-17; eight concentrations 10 μM to 4.5 nM. The method, then:
Cyp17 assay protocol: AD293 cells that stably over-express recombinant CYP-17 were seeded in 96 well plates coated with poly D-lysine (15,000 cell per well) and incubated at 37° C. for 24 hours in Dulbecco's Modified Eagle Medium (DMEM) with Fetal Bovine Serum (FBS) that is stripped of hormones by charcoal treatment. The media is then removed, the cells are washed once with Phosphate buffer saline solution, and 50 μL Dulbecco's Modified Eagle Medium (DMEM) with Fetal Bovine Serum (FBS) that is stripped of hormones by charcoal treatment is added. Compounds of the disclosure are then added to the wells in eight concentration spanning 10 μM to 4.5 nM, and the plates are incubated for an additional 60 minutes at 37° C. [21-^3H] 17α-hydroxyl-Pregnenolone is then added (50 nCi per well, 31.25 nM) and the plates are incubated for an additional 4 hours at 37° C. The media is then collected, 200 μL of chloroform is added, and the mixture is shaken for 1 hour. The aqueous layer is then separated and analyzed for the presence of ^3H-acetic acid using a Perkin Elmer Topcount NXT to determine IC50s of the compounds of the disclosure.

The next assay has as its target T2, recombinant CYP-11 (Homo sapiens, UniProt P15538).
T2 construct: expressed in transfected cells
T2 sequence (P15538 25-503): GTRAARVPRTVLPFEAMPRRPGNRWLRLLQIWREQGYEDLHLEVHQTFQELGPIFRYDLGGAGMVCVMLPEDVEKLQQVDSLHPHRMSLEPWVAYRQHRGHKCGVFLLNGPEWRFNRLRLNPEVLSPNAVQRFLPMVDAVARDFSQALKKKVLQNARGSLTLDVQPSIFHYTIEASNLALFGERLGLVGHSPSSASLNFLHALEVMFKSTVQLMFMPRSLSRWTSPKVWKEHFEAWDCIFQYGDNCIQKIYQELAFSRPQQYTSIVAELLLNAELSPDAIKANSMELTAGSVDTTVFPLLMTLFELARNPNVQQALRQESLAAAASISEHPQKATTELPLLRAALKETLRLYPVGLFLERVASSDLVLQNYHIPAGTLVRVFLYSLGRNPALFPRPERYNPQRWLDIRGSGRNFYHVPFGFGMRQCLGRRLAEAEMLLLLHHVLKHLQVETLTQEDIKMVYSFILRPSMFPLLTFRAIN
The assay can be described thus: Cyp11 assay: cortisol formation from 11-deoxycortisol in AD293 cells, LC/MS. The following applies: AD293 cells stably over-expressing recombinant CYP-11; eight concentrations 10 μM to 4.5 nM. How it is done:
Cyp11 assay protocol: AD293 cells that stably over-express recombinant CYP-11 were seeded in 96 well plates coated with poly D-lysine (15,000 cell per well) and incubated at 37° C. for 24 hours in Dulbecco's Modified Eagle Medium (DMEM) with Fetal Bovine Serum (FBS) that is stripped of hormones by charcoal treatment. The media is then removed, the cells are washed once with Phosphate buffer saline solution, and 50 μL Dulbecco's Modified Eagle Medium (DMEM) with Fetal Bovine Serum (FBS) that is stripped of hormones by charcoal treatment is added. Compounds of the disclosure are then added to the wells in eight concentration spanning 10 μM to 4.5 nM, and the plates are incubated for an additional 60 minutes at 37° C. 11-deoxycortisol is then added ([…]) and the plates are incubated for an additional 12 hours at 37° C. After incubation, 50 uL of the supernatant (medium) is transferred into a fresh plate and 150 uL of an acetonitrile solution containing 200 ng/ml of Telmisartan is added. The sample is mixed and then placed in a centrifuge at 2000 rpm for 5 minutes. 100 uL of the supernatant is transferred into a fresh 96 well deep well plate, 100 uL of 1:1 methanol: water was added, the solution was mixed and then analyzed by LC/MS for the presence of cortisol using an Agilent 1200 RRLC/ABSCIEX API4000 LC-MS or Shimadzu Prominance/ABSCIEX API4000 LC-MS to determine IC50s of the compounds of the disclosure.

In a further assay the target is T3, recombinant CYP-21 (Homo sapiens, UniProt P08686).
T3 construct: expressed in transfected cells
T3 sequence (P08686 1-495): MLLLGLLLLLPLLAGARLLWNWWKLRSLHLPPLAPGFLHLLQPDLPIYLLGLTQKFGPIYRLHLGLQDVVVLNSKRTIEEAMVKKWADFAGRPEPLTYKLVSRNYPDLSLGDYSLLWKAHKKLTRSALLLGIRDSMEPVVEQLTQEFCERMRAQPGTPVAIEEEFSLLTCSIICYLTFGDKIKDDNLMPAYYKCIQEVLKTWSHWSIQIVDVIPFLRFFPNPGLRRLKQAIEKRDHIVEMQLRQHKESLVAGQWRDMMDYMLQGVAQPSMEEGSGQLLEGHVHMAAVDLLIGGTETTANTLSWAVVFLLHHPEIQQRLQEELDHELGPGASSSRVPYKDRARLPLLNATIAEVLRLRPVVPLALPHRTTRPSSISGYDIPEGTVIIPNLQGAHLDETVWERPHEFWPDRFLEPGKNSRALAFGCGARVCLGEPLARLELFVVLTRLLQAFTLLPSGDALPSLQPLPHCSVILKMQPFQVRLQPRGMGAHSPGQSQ
The assay can be described thus: Cyp21 assay: 11-deoxycortisol formation from 17-OH Progesterone in AD293 cells, LC/MS. The following applies: AD293 cells stably over-expressing recombinant CYP-21; eight concentrations 10 μM to 4.5 nM. How it is done:
Cyp21 assay protocol: AD293 cells that stably over-express recombinant CYP-21 were seeded in 96 well plates coated with poly D-lysine (10,000 cell per well) and incubated at 37° C. for 24 hours in Dulbecco's Modified Eagle Medium (DMEM) with Fetal Bovine Serum (FBS) that is stripped of hormones by charcoal treatment. The media is then removed, the cells are washed once with Phosphate buffer saline solution, and 50 μL Dulbecco's Modified Eagle Medium (DMEM) with Fetal Bovine Serum (FBS) that is stripped of hormones by charcoal treatment is added. Compounds of the disclosure are then added to the wells in eight concentration spanning 10 μM to 4.5 nM, and the plates are incubated for an additional 60 minutes at 37° C. 17-OH Progesterone is then added ([…]) and the plates are incubated for an additional 45 minutes at 37° C. After incubation, 50 uL of the supernatant (medium) is transferred into a fresh plate and 150 uL of an acetonitrile solution containing 200 ng/ml of Telmisartan is added. The sample is mixed and then placed in a centrifuge at 2000 rpm for 5 minutes.

As a reminder, the IC50 is the concentration that inhibits the measured activity by half. For the compound `COc1cc(F)ccc1-c1ccc(C(c2ccncc2)N2CCN(c3ccccc3C#N)CC2)cc1` (stereo not drawn) [Entry 24, 2-(4-((4′-fluoro-2′-methoxy-[1,1′-biphenyl]-4-yl)(pyridin-4-yl)methyl)piperazin-1-yl)benzonitrile], the figures for the half-maximal inhibitory concentration (IC50) on recombinant CYP-17, at recombinant CYP-11 and on recombinant CYP-21 were 192 nM, at least 10000 nM and at least 10000 nM, respectively.
Regarding `COc1cccc(-c2ccc(C(c3ccncc3)N3CCNCC3)cc2)c1` (stereo not drawn) [Entry 32, 1-((3′-methoxy-[1,1′-biphenyl]-4-yl)(pyridin-4-yl)methyl)piperazine], the IC50 at recombinant CYP-17 is 1170 nM; at recombinant CYP-11, at least 10000 nM; at recombinant CYP-21, at least 10000 nM.
On to `COc1cc(F)ccc1-c1ccc(C(c2ccncc2)N2CCNCC2)cc1` (stereo not drawn) [Entry 30, 1-((4′-fluoro-2′-methoxy-[1,1′-biphenyl]-4-yl)(pyridin-4-yl)methyl)piperazine], for which the values for the IC50 at recombinant CYP-17, on recombinant CYP-11 and on recombinant CYP-21 were 1000 nM, at least 10000 nM and at least 10000 nM, respectively.
As for `COc1cc(F)ccc1-c1ccc(C(OC)c2ccncc2)cc1` (stereo not drawn) [Entry 33, 4-((4′-fluoro-2′-methoxy-[1,1′-biphenyl]-4-yl)(methoxy)methyl)pyridine], the IC50 on recombinant CYP-17 is at least 10000 nM; on recombinant CYP-11 it was at least 10000 nM; on recombinant CYP-21 it was 524 nM.
`COc1cc(F)ccc1-c1ccc(C(c2ccncc2)N2CCCC2)cc1` (stereo not drawn) [Entry 19, 4-((4′-fluoro-2′-methoxy-[1,1′-biphenyl]-4-yl)(pyrrolidin-1-yl)methyl)pyridine]: the 50% inhibitory concentration (IC50) at recombinant CYP-17 was 254 nM; on recombinant CYP-11 it was at least 10000 nM; on recombinant CYP-21 it was at least 10000 nM.
Consider `COc1cc(F)ccc1-c1ccc(C(c2ccncc2)N2CCOCC2)cc1` (stereo not drawn) [Entry 17, 4-((4′-fluoro-2′-methoxy-[1,1′-biphenyl]-4-yl)(pyridin-4-yl)methyl)morpholine], for which the half-maximal inhibitory concentration (IC50) on recombinant CYP-17 was 28 nM; at recombinant CYP-11, at least 10000 nM; at recombinant CYP-21 it was at least 10000 nM.
For the compound `COc1ccc(-c2ccc(C3(c4ccncc4)OCCO3)cc2)cc1OC` [Entry 16, 4-[2-(3′,4′-dimethoxy-biphenyl-4-yl)-[1,3]dioxolan-2-yl]-pyridine], the half-inhibitory concentration (IC50) at recombinant CYP-17 came out at 23 nM; at recombinant CYP-11, 1400 nM; on recombinant CYP-21, 565 nM.
Take `COc1cc(F)ccc1-c1ccc(C(c2ccncc2)N2CCN(c3ccccc3)CC2)cc1` (stereo not drawn) [Entry 22, 1-((4′-fluoro-2′-methoxy-[1,1′-biphenyl]-4-yl)(pyridin-4-yl)methyl)-4-phenylpiperazine]: the half-inhibitory concentration (IC50) on recombinant CYP-17 was 180 nM; at recombinant CYP-11, at least 10000 nM; on recombinant CYP-21 it was at least 10000 nM.
Regarding `COc1cc(F)ccc1-c1ccc(C(NCCN)c2ccncc2)cc1` (stereo not drawn) [Entry 26, N1-((4′-fluoro-2′-methoxy-[1,1′-biphenyl]-4-yl)(pyridin-4-yl)methyl)ethane-1,2-diamine], the half-inhibitory concentration (IC50) on recombinant CYP-17 is 120 nM; at recombinant CYP-11, at least 10000 nM; at recombinant CYP-21, at least 10000 nM.
With `COc1ccc(-c2ccc(C(F)(F)c3ccncc3)cc2)cc1OC` [Entry 8], the results for the IC50 on recombinant CYP-17, on recombinant CYP-11 and at recombinant CYP-21 were 34 nM, at least 10000 nM and 408 nM, respectively.
On to `COc1cc(F)ccc1-c1ccc(C(c2ccncc2)N2CCN(c3ccccn3)CC2)cc1` (stereo not drawn) [Entry 23, 1-((4′-fluoro-2′-methoxy-[1,1′-biphenyl]-4-yl)(pyridin-4-yl)methyl)-4-(pyridin-2-yl)piperazine], for which the 50% inhibitory concentration (IC50) on recombinant CYP-17 is 43 nM; at recombinant CYP-11, at least 10000 nM; at recombinant CYP-21 it was at least 10000 nM.
Consider `COc1cc(F)ccc1-c1ccc(C(c2ccncc2)N2CCN(C)CC2)cc1` (stereo not drawn) [Entry 20, 1-((4′-fluoro-2′-methoxy-[1,1′-biphenyl]-4-yl)(pyridin-4-yl)methyl)-4-methylpiperazine], for which the half-inhibitory concentration (IC50) at recombinant CYP-17 was 107 nM; at recombinant CYP-11, at least 10000 nM; at recombinant CYP-21, at least 10000 nM.
As to `COc1cc(F)ccc1-c1ccc(C(c2ccncc2)N2CCCCC2)cc1` (stereo not drawn) [Entry 18, 4-((4′-fluoro-2′-methoxy-[1,1′-biphenyl]-4-yl)(piperidin-1-yl)methyl)pyridine], the 50% inhibitory concentration (IC50) at recombinant CYP-17 was 770 nM; at recombinant CYP-11, at least 10000 nM; at recombinant CYP-21 it was at least 10000 nM.
In the case of `COc1cccc(-c2ccc(C(OC)c3ccncc3)cc2)c1` (stereo not drawn) [Entry 34, 4-(methoxy(3′-methoxy-[1,1′-biphenyl]-4-yl)methyl)pyridine], the IC50 on recombinant CYP-17 is 510 nM; on recombinant CYP-11 it was 480 nM; on recombinant CYP-21, 620 nM.
The like results for `COc1cc(F)ccc1-c1ccc(C(NCCNC(=O)OC(C)(C)C)c2ccncc2)cc1` (stereo not drawn) [Entry 25, tert-butyl(2-(((4′-fluoro-2′-methoxy-[1,1′-biphenyl]-4-yl)(pyridin-4-yl)methyl)amino)ethyl)carbamate] were, in that order, 31 nM, 4200 nM and 4000 nM.
As for `COc1cccc(-c2ccc(C(c3ccncc3)N3CCCCC3)cc2)c1` (stereo not drawn) [Entry 31, 4-((3′-methoxy-[1,1′-biphenyl]-4-yl)(piperidin-1-yl)methyl)pyridine], the figures for the 50% inhibitory concentration (IC50) at recombinant CYP-17, at recombinant CYP-11 and at recombinant CYP-21 were 27 nM, at least 10000 nM and 2400 nM, respectively.
